Assay [1] concerns Smad2/Smad3 phosphorylation. The assay can be described thus: Phospho-Smad2/3 Inhibition Assay (western blot), Panc-1. The format is cell-based, human. The conditions noted are these: at 10 μM, Panc-1 pancreatic cancer cell line; starred symbols = activation. In short, it runs like this:
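Western blotting of lysates (15-50 μg protein) read phosphorylation of Smad2 Ser465/467 and Smad3 Ser423/425. Before lysis, Panc-1 cells got 1 h of 10 ng/ml TGF-b1 following 3 h compound exposure at 37° C (10 μM final, or serial dilutions for IC50, 0.3% DMSO) after overnight 0.5% FBS starvation.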

The test system of the next assay is IL6. Briefly: IL-6 Quantification Assay (ELISA), LPS-stimulated RAW 264.7. The format is cell-based. As to conditions: Mus musculus, RAW264.7; read-out: IL-6: % inh. The arrangement: inhibition: dose or concentration left out as unconfirmed.
The subject of another assay is TNF-alpha. Briefly: TNF-alpha Quantification Assay (ELISA), LPS-stimulated RAW 264.7. The class given is cell-based. As to conditions: Mus musculus, RAW264.7; at 10 μM; read-out: TNFα: % inh.
Assay [2] deals with MiaPaca-2 (expressing KRAS G12C mutant). The assay can be described thus: Proliferation Assay (Cell Viability Assay). The class given is cell-based. The conditions noted are these: Homo sapiens, MIA PaCa-2; read-out: Proliferation in MiaPaca-2: IC50. The procedure, abridged:
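After 2–4 days' exposure at 37 °C, 5% CO2 to a single 10 μM final concentration or a dilution series (IC50), percent proliferation inhibition was derived from CellTiter 96 Aqueous One viability readings. The medium contained 0.3% DMSO and 10% FBS. KRAS G12C MiaPaca-2 cells were plated at 2000–5000/well the day before.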

Bounds are passed on as bounds.

Take `COc1ccc(Nc2nc(-c3nccn3C)nn3cc(-c4ccn(C(C)C)n4)c(C)c23)nn1` [Compound 74, 6-(1-Isopropyl-1H-pyrazol-3-yl)-N-(6-methoxypyridazin-3-yl)-5-methyl-2-(1-methyl-1H-imidazol-2-yl)pyrrolo[2,1-f][1,2,4]triazin-4-amine]: the “% inh of Smad2/3 phosphorylation in Panc-1” value (shortened to “% inh”) in assay [1] is listed as “A* (A* = 1-25% activation)”. For the same compound, in the assay on IL6, the inhibition fell in the range of 1 to 24%. Moreover, the inhibition at 10 µM with TNF-alpha was in the range of 1 to 24%. For the same compound, in assay [2], the IC50 fell in the range of 150 to 500 nM.
For `COCCCNc1nc(-c2nccn2C)nn2cc(-c3cccc(OC)c3Cl)c(-c3ccccc3)c12` [Compound 30, 6-(2-Chloro-3-methoxyphenyl)-N-(3-methoxypropyl)-2-(1-methyl-1H-imidazol-2-yl)-5-phenylpyrrolo[2,1-f][1,2,4]triazin-4-amine], the “% inh” value in assay [1] is on record as “D (D = 76-100% inhibition)”. Moreover, the inhibition with IL6 lay in the range of 75 to 100%. Besides, the inhibition at 10 µM in the assay with TNF-alpha was in the range of 75 to 100%. The IC50 in assay [2] fell in the range of 510 to 1000 nM.
Consider `COc1cc(Nc2nc(-c3nccn3C)nn3cc(-c4ccn(C)n4)c(C)c23)nn1C` [Compound 253, N-(5-Methoxy-1-methyl-1H-pyrazol-3-yl)-5-methyl-2-(1-methyl-1H-imidazol-2-yl)-6-(1-methyl-1H-pyrazol-3-yl)pyrrolo[2,1-f][1,2,4]triazin-4-amine], for which the “% inh” value in assay [1] is reported as “A* (A* = 1-25% activation)”. Also, in the assay on IL6, the inhibition was 25 to 49%. In addition, the inhibition at 10 µM in the assay with TNF-alpha was 0%. Moreover, in assay [2], the IC50 was 510 to 1000 nM.
Turning to `COC1CCCN(c2nc(-c3ccccn3)nn3cc(-c4ccn(C(C)C)n4)c(-c4ccccc4)c23)C1` (racemic) [Compound 27, rac 6-(1-Isopropyl-1H-pyrazol-3-yl)-4-(3-methoxypiperidin-1-yl)-5-phenyl-2-(pyridin-2-yl)pyrrolo[2,1-f][1,2,4]triazine], the “% inh” value in assay [1] is listed as “D (D = 76-100% inhibition)”. Moreover, the inhibition in the assay with IL6 was 75 to 100%. Further, the inhibition at 10 µM in the assay with TNF-alpha is 25 to 49%. For the same compound, the IC50 in assay [2] was greater than 1000 nM.

(Values after patent US12459951B2, “Compounds that interact with RAS superfamily proteins for treatment of cancers, inflammatory diseases, rasopathies, and fibrotic disease” (SHY Therapeutics, LLC, priority 2022, dated 2025).)
